Test [1] has as its target T1, rhesus monkey wild-type alpha-7 nACh receptor (Macaca mulatta, UniProt Q866A2).
T1 construct: expressed in transfected cells
The test is described as follows: Patch clamp net charge analysis of wild-type mkα7 in stably transfected QM7 cells. It counts as cell-based. The settings on record: wild-type alpha-7 clone #1, dose response curve, FIG. 8, normalized to 1 mM ACh. Here is the method:
(§1) QM 7 cells were routinely grown as monolayers in minimum essential medium 199 supplemented with 5% FBS, 2% tryptose phosphate broth, 1% DMSO, penicillin (100 IU/ml) and were passaged every 3-4 days. Transfections with either rhesus monkey wild type alpha7 nAchR (mkα7) or mutant alpha7 nAchR (mkα7/L270T) were performed using Lipofectamine PLUS Kit (Invitrogen). Twenty-four hours after the transfection, cells were split for stable selection with 1 mg/ml G418. Single colonies were isolated and propagated. The expression of mkα7/L270T was identified with FLIPR for fluorescence changes after addition of agonist. The expression of mkα7 was identified by radioligand binding to [^3H]-methyllycaconitine (Virginio, C., A., Giacometti, A. et al. (2002). Pharmacological properties of rat alpha7 nicotinic receptors expressed in native and recombinant cell systems, Eur, J. Pharmacol. 445(3), 153-161.)
Stably transfected QM7 cells grown on cover slips and expressing wild-type rhesus monkey alpha7 receptors were incubated at 37° C. in the presence of 5% CO2. Individual cover slips were removed for function analysis and placed in a recording buffer consisting of 140 mM NaCl, 5 mM KCl, 10 mM HEPES, 2 mM CaCl2, 1 mM MgCl2, 100 mM glucose titrated to pH 7.3 and perfused at 2-3 ml/min. […]
A general note: The patch-clamp technique gives a direct electrical read-out from membranes.

The target of test [2] is T2, mutant (L270T) alpha7 nAchR (Macaca mulatta, UniProt Q866A2, L270T).
T2 construct: expressed in transfected cells
Kind of test: FLIPR functional measurement of mutant mkα7/L270T stably expressed in QM7 cells. It counts as cell-based, rhesus monkey. The settings on record: Fluo-3AM, FIG. 7. Here is the method:
as §1
Cells were seeded into 96 well black wall and clear-bottom plates (Costar) coated with poly-D-lysine at a density of 20,000 cells per well and cultured overnight. […] The fluorescence was monitored (λex=488 […]) for three minutes immediately after the compound addition. The relative fluorescence unit (RFU) was measured as peak fluorescence intensity minus basal fluorescence intensity. […]

pEC50: −log10 of the molar value.

One may read the pEC50 as the negative decadic logarithm of the EC50, by convention in mol/L. `CC(=O)OCC[N+](C)(C)C` [acetylcholine] showed a pEC50 in test [1] of 4.42.

`COc1ccc(/C=C2\CCCN=C2c2cccnc2)c(OC)c1` [GTS-21]: the “EC50 compared with nicotine” value in test [2] is “better or comparable to that of nicotine”.

Source of the values: US20060142188A1 (Memory Pharmaceuticals Corporation, priority 2003, published 2006).
